How the values were obtained:
sarcoma [1] = assay: Clinical outcome of sarcoma patients treated with ET-743 (Example 1, 160 patients; by XPG mRNA, XPG protein, BRCA1 mRNA); assay type: in vivo, human; design: Tumor Control Rate (CR+PR+MR+SD 6 mo) / patients achieving progression free survival 6 months (PFS6) / survival at 12 months: concentration or dose not given beside the values
Protocol: In this study, 160 paraffin embedded tumor samples from sarcoma patients before the treatment with any chemotherapy agent have been evaluated.
(§1) The majority of patients were treated before with one or several chemotherapy agents and later they followed a treatment with ET-743. The dosage of intravenous infusion (IV) of ET-743 given to the different patients was within the range of 1.650-1.0 mg/m^2; the schedules were 24 hours or 3 hour IV infusion with a three week interval between cycles; and the number of cycles ranged from 1 up to 44 cycles in some patients.
The clinical data from the patients was collected in the clinical data collection form and matched with the molecular data after completion of the mRNA and protein expression levels determination (Table 1).
SAS v8.2 (statistical software) was used for all the statistical analysis. The statistical techniques for univariate, bivariate and multivariate variables were chosen, according with the nature of variables that will be analysed, i.e. when the dependent variable is a temporal variable with censor status the Cox regression would be applied, when correlation between variables will be computed the Pearson and/or Spearman measures would be used. P-values below 0.05 will be considered statistically significant in all tests, when appropriate 95% confidence intervals will be presented too.
A total of 160 paraffin embedded tumor samples providing evaluable results for mRNA or protein expression were analysed. […] These samples came from sarcoma patients before being treated with a chemotherapy agent.

sarcoma [2] = assay: Clinical outcome of sarcoma patients treated with ET-743 (Example 2, 168 patients; by XPG SNP Asp1104His genotype, XPG mRNA, XPG protein); assay type: in vivo, human; design: surviving patients at two years after treatment / Tumor Control Rate (CR+PR+MR+SD≧6 mo) / patients achieving progression free survival ≧6 months (PFS6) / survival at 12 months / rate of survival after 2 years: concentration or dose not given beside the values
Protocol: In this study, 168 paraffin embedded tumor samples from sarcoma patients before the treatment with any chemotherapy agent have been evaluated.
as §1
The clinical data from the patients was collected in the clinical data collection form and matched with the molecular data (Table 5)
A total of 168 paraffin embedded tumor samples providing evaluable results for at least one of the biomarkers (XPGmRNA, XPG protein, XPGAsp1104His or BRCA 1 mRNA) were analysed.

[3] = high vs low XPG mRNA subpopulation
[4] = high vs low XPG protein subpopulation
[5] = intermediate subpopulation (high BRCA1 and high XPG, or low BRCA1 and low XPG)
[6] = whole cohort, 51 patients still censored
[7] = whole cohort, Kaplan-Meier (FIG. 8)

COc1cc2c(cc1O)CCN[C@]21CS[C@@H]2c3c(OC(C)=O)c(C)c4c(c3[C@H](COC1=O)N1[C@@H]2[C@H]2c3c(cc(C)c(OC)c3O)C[C@@H]([C@@H]1O)N2C)OCO4 [ET-743, ecteinascidin 743]
Minor Responses (MR) (sarcoma [1]; 140 evaluable patients): 7.1% | Tumor Control Rate (CR+PR+MR+SD 6 mo) (sarcoma [1]; 140 evaluable patients): 47.1% | overall response rate (RR), Complete+Partial Responses (sarcoma [1]; 140 evaluable patients): 16.4% | patients achieving progression free survival 6 months (PFS6) (sarcoma [1]; 140 evaluable patients): 41.4% | CR + PR + MR + SD > 6 (sarcoma [1]; High BRCA1, High XPG): 11/26 (42%) | Median PFS (sarcoma [1]; High BRCA1, High XPG): 2.5 m | Median Survival (sarcoma [1]; High BRCA1, High XPG): 13.6 m | PFS 6 (sarcoma [1]; High BRCA1, High XPG): 38.5% | PFS > 6 Months rate (sarcoma [1]; High BRCA1, High XPG): 9/26 (35%) | CR + PR + MR + SD > 6 (sarcoma [1]; High BRCA1, Low XPG): 4/20 (20%) | Median PFS (sarcoma [1]; High BRCA1, Low XPG): 2.5 m | Median Survival (sarcoma [1]; High BRCA1, Low XPG): 6.6 m | PFS 6 (sarcoma [1]; High BRCA1, Low XPG): 22.2% | PFS > 6 Months rate (sarcoma [1]; High BRCA1, Low XPG): 4/21 (19%) | CR + PR (sarcoma [1]; High BRCA1 mRNA, High XPG mRNA): 5/26 (19%) | CR + PR (sarcoma [1]; High BRCA1 mRNA, Low XPG mRNA): 0/20 (0%) | CR + PR + MR + SD > 6 (sarcoma [1]; Low BRCA1, High XPG): 12/19 (63%) | Median PFS (sarcoma [1]; Low BRCA1, High XPG): 7.3 m | Median Survival (sarcoma [1]; Low BRCA1, High XPG): 15.4 m | PFS 6 (sarcoma [1]; Low BRCA1, High XPG): 55.7% | PFS > 6 Months rate (sarcoma [1]; Low BRCA1, High XPG): 10/21 (48%) | CR + PR + MR + SD > 6 (sarcoma [1]; Low BRCA1, Low XPG): 14/31 (45%) | Median PFS (sarcoma [1]; Low BRCA1, Low XPG): 3.4 m | Median Survival (sarcoma [1]; Low BRCA1, Low XPG): 11.7 m | PFS 6 (sarcoma [1]; Low BRCA1, Low XPG): 35.5% | PFS > 6 Months rate (sarcoma [1]; Low BRCA1, Low XPG): 12/27 (61%) | CR + PR (sarcoma [1]; Low BRCA1 mRNA, High XPG mRNA): 3/19 (16%) | CR + PR (sarcoma [1]; Low BRCA1 mRNA, Low XPG mRNA): 6/31 (19%) | CR + PR (sarcoma [1]; XPG mRNA < 1.55): 6/59 (10%) | CR + PR + MR + SD ≧ 6 (sarcoma [1]; XPG mRNA < 1.55): 21/59 (36%) | Median PFS (KM) (sarcoma [1]; XPG mRNA < 1.55): 2.5 m | Median Survival (KM) (sarcoma [1]; XPG mRNA < 1.55): 9.3 m | PFS6 (KM) (sarcoma [1]; XPG mRNA < 1.55): 29.5% | PFS ≧ 6 Months rate (sarcoma [1]; XPG mRNA < 1.55): 18/60 (30%) | CR + PR (sarcoma [1]; XPG mRNA ≧ 1.55): 11/57 (19%) | CR + PR + MR + SD ≧ 6 (sarcoma [1]; XPG mRNA ≧ 1.55): 32/57 (56%) | Median PFS (KM) (sarcoma [1]; XPG mRNA ≧ 1.55): 7.1 m | Median Survival (KM) (sarcoma [1]; XPG mRNA ≧ 1.55): 19.1 m | PFS6 (KM) (sarcoma [1]; XPG mRNA ≧ 1.55): 52.1% | PFS ≧ 6 Months rate (sarcoma [1]; XPG mRNA ≧ 1.55): 28/59 (47.5%) | CR + PR + MR + SD ≧ 6 (sarcoma [1]; XPG protein 0 + 1): 27/64 (42%) | Median PFS (KM) (sarcoma [1]; XPG protein 0 + 1): 3.7 m | Median Survival (KM) (sarcoma [1]; XPG protein 0 + 1): 11.7 m | PFS6 (KM) (sarcoma [1]; XPG protein 0 + 1): 39.9% | PFS ≧ 6 Months (sarcoma [1]; XPG protein 0 + 1): 26/64 (39%) | CR + PR + MR + SD ≧ 6 (sarcoma [1]; XPG protein 2 + 3): 15/25 (60%) | Median PFS (KM) (sarcoma [1]; XPG protein 2 + 3): 7.1 m | Median Survival (KM) (sarcoma [1]; XPG protein 2 + 3): 27.7 m | PFS6 (KM) (sarcoma [1]; XPG protein 2 + 3): 55.6% | PFS ≧ 6 Months (sarcoma [1]; XPG protein 2 + 3): 13/25 (50%) | CR + PR (sarcoma [1]; XPG protein IHC score 0 + 1): 8/64 (13%) | CR + PR (sarcoma [1]; XPG protein IHC score 2 + 3): 6/25 (24%) | survival at 12 months (sarcoma [1]; high XPG expression (protein analysis, FIG. 5)): 73.7% | survival at 12 months (sarcoma [1]; high XPG mRNA expression): 61.9% | fold increase in objective response (sarcoma [1]; [3]): 1.9 fold | fold increase in tumor control rate (sarcoma [1]; [3]): 1.6 fold | fold increase in objective response (sarcoma [1]; [4]): 1.85 fold | fold increase in tumor control rate (sarcoma [1]; [4]): 1.43 fold | Median OS (sarcoma [1]; [5]): 13.6 months | Median PFS (sarcoma [1]; [5]): 2.8 months | PFS6 rate (sarcoma [1]; [5]): 36.6% | survival at 12 months (sarcoma [1]; low XPG mRNA expression): 46.2% | survival at 12 months (sarcoma [1]; low XPG protein expression): 45.5% | median duration of the response (CR+PR+MR) (sarcoma [1]; whole cohort): 7.83 months | Median Survival (sarcoma [1]; [6]): 10 months | Median Survival (sarcoma [1]; whole cohort, Kaplan-Meier): 17.7 months | PFS6 rate (sarcoma [1]; whole cohort, Kaplan-Meier): 42.1% | median progression free survival (sarcoma [1]; whole cohort, Kaplan-Meier): 3.8 months | Minor Responses (MR) (sarcoma [2]; 147 evaluable patients): 6.8% | Tumor Control Rate (CR+PR+MR+SD≧6 mo) (sarcoma [2]; 147 evaluable patients): 44.9% | overall response rate (RR), Complete+Partial Responses (sarcoma [2]; 147 evaluable patients): 15.6% | patients achieving progression free survival ≧6 months (PFS6) (sarcoma [2]; 147 evaluable patients): 39.5% | Median PFS (sarcoma [2]; Asp/Asp XPG (W), XPG mRNA < 1.55): 1.8 months | Median PFS (sarcoma [2]; Asp/Asp XPG (W), XPG protein 0 + 1): 2.9 months | Median PFS (sarcoma [2]; Asp/His + His/His XPG (H + M), XPG mRNA < 1.55): 3.3 months | Median PFS (sarcoma [2]; Asp/His + His/His XPG (H + M), XPG protein 0 + 1): 3.3 months | Median OS (sarcoma [2]; H + M, XPG mRNA < 1.55): 9.0 months | OS at 12 months (sarcoma [2]; H + M, XPG mRNA < 1.55): 39.1% | PFS at 6 months (sarcoma [2]; H + M, XPG mRNA < 1.55): 31.3% | Median OS (sarcoma [2]; H + M, XPG mRNA >= 1.55): 5.0 months | Median PFS (sarcoma [2]; H + M, XPG mRNA >= 1.55): 2.9 months | OS at 12 months (sarcoma [2]; H + M, XPG mRNA >= 1.55): 36.9% | PFS at 6 months (sarcoma [2]; H + M, XPG mRNA >= 1.55): 15.4% | Median OS (sarcoma [2]; H + M, XPG protein 0 + 1): 6.2 months | OS at 12 months (sarcoma [2]; H + M, XPG protein 0 + 1): 23.7% | OS at 24 months (sarcoma [2]; H + M, XPG protein 0 + 1): 0% | PFS at 6 months (sarcoma [2]; H + M, XPG protein 0 + 1): 26.3% | Median OS (sarcoma [2]; H + M, XPG protein 2 + 3): 12.2 months | Median PFS (sarcoma [2]; H + M, XPG protein 2 + 3): 3.4 months | OS at 12 months (sarcoma [2]; H + M, XPG protein 2 + 3): 52.6% | OS at 24 months (sarcoma [2]; H + M, XPG protein 2 + 3): 0% | PFS at 6 months (sarcoma [2]; H + M, XPG protein 2 + 3): 27.3% | rate of survival after 2 years (sarcoma [2]; M+H genotype and high XPG mRNA expression): 0% | rate of survival after 2 years (sarcoma [2]; M+H genotype and low XPG mRNA expression): 39.1% | rate of survival after 2 years (sarcoma [2]; W genotype and high XPG mRNA expression): 66.9% | rate of survival after 2 years (sarcoma [2]; W genotype and low XPG mRNA expression): 28.9% | Median OS (sarcoma [2]; W, XPG mRNA < 1.55): 8.6 months | OS at 12 months (sarcoma [2]; W, XPG mRNA < 1.55): 28.9% | PFS at 6 months (sarcoma [2]; W, XPG mRNA < 1.55): 26.3% | Median OS (sarcoma [2]; W, XPG mRNA >= 1.55): 27.7 months | Median PFS (sarcoma [2]; W, XPG mRNA >= 1.55): 17.1 months | OS at 12 months (sarcoma [2]; W, XPG mRNA >= 1.55): 83.7% | PFS at 6 months (sarcoma [2]; W, XPG mRNA >= 1.55): 82.4% | Median OS (sarcoma [2]; W, XPG protein 0 + 1): 11.7 months | OS at 12 months (sarcoma [2]; W, XPG protein 0 + 1): 47.1% | OS at 24 months (sarcoma [2]; W, XPG protein 0 + 1): 40.4% | PFS at 6 months (sarcoma [2]; W, XPG protein 0 + 1): 44.0% | Median OS (sarcoma [2]; W, XPG protein 2 + 3): 27.7 months | Median PFS (sarcoma [2]; W, XPG protein 2 + 3): 8.0 months | OS at 12 months (sarcoma [2]; W, XPG protein 2 + 3): 90.0% | OS at 24 months (sarcoma [2]; W, XPG protein 2 + 3): 90.0% | PFS at 6 months (sarcoma [2]; W, XPG protein 2 + 3): 77.1% | Median PFS (KM) (sarcoma [2]; genotype H): 3.4 months | Median Survival (KM) (sarcoma [2]; genotype H): 6.9 months | PFS6 (KM) (sarcoma [2]; genotype H): 34.6% | survival at 12 months (sarcoma [2]; genotype H): 34.6% | CR + PR + MR + SD ≧ 6 (sarcoma [2]; genotype M): 0 | Median PFS (KM) (sarcoma [2]; genotype M): 1.6 months | Median Survival (KM) (sarcoma [2]; genotype M): 9.1 months | PFS6 (KM) (sarcoma [2]; genotype M): 0% | survival at 12 months (sarcoma [2]; genotype M): 31.3% | Median PFS (KM) (sarcoma [2]; genotype W): 6.4 months | Median Survival (KM) (sarcoma [2]; genotype W): 19.9 months | PFS6 (KM) (sarcoma [2]; genotype W): 50.8% | survival at 12 months (sarcoma [2]; genotype W): 54% | median duration of the response (CR+PR+MR) (sarcoma [2]; whole cohort): 7.83 months | Median Survival (sarcoma [2]; [6]): 9.6 months | surviving patients at two years after treatment (sarcoma [2]; whole cohort, Kaplan-Meier): 34.0% | Median Survival (sarcoma [2]; [7]): 15.4 months | PFS6 rate (sarcoma [2]; [7]): 40.2% | median progression free survival (sarcoma [2]; [7]): 3.4 months

Source: patent US20100267732A1, “Prognostic Molecular Markers for ET-743 Treatment” (PHARMA MAR, S.A., priority 2007, published 2010)
